The test system of experiment [1] is EL4 murine leukemia lymphoma. Kind of experiment: Block of mitosis, morphology by microscopy. As to conditions: 37° C. for 48 hr. More on the design: key: +Block of mitosis was observed; −no mitotic blocking. The experiment is classed as cell-based. On the procedure: (§1) All cell lines, with the exception of human SP cells, a biphenotypic leukemic cell line (reference 10 & 11), were obtained from the American Tissue Culture Collection (Rockville, Md.) and were cultured under conditions recommended by the vendor. EL4 murine leukemia lymphoma (as suspension) and B16 mouse melanoma (as monolayer) cell lines were cultivated in RPMI-1640 medium supplemented with 10% fetal bovine serum (FBS), penicillin (250 μ/ml) and streptomycin (250 μml); MOT, a non-tumor proliferative myocardial cell line from rat and NIH 3T3, a non-malignant and proliferative fibroblast cell line from mouse were both cultured as monolayers in Dulbecco's Modified Eagle's Medium with 10% heat inactivated calf serum. CEM, a human acute T-cell leukemic cell line, was cultured as a suspension in Iscove's Dulbecco's Medium with 10% heat inactivated fetal calf serum and antibiotics. PC-3 cells, a human prostate cancer line, was cultured as monolayers in RPMI-1640 with 10% FBS. SP cells were cultured in Minimum Eagle's Medium plus 10% FBS. Human peripheral blood lymphocytes (PBL) were isolated from whole blood of healthy individuals by Ficoll-Hypaque gradient method. Isolated PBL were maintained in RPMI-1640 in the presence of 10% homologous plasma at 37° C. All cells were incubated at 37° C. in 5% C02. Cells in exponential growth were used. […]

A further experiment has as its system PC-3 cells. Put plainly: Cytotoxicity, ID50 and ID90 (monolayer culture). The experiment is classed as cell-based. The note with it: PC-3, Human Prostate Cancer, 48 hr. The method, then: as §1, with “method.” for “method. Isolated PBL were maintained in RPMI-1640 in the presence of 10% homologous plasma at 37° C. All cells were incubated at 37° C. in 5% C02. Cells in exponential growth were used.”
(§2) The ID50 and ID90 was determined in duplicate in every set of experiments, and each experiment was repeated 3 times under identical conditions. […]

The subject of the next experiment is B16 mouse melanoma. Kind of experiment: Cytotoxicity, ID50 and ID90 (monolayer culture). The experiment is classed as cell-based. The note with it: B16, Murine melanoma, 48 hr. On the procedure:
as §1, with “method.” for “method. Isolated PBL were maintained in RPMI-1640 in the presence of 10% homologous plasma at 37° C. All cells were incubated at 37° C. in 5% C02. Cells in exponential growth were used.”
as §2

The next experiment concerns L1210 Leukemia. Kind of experiment: Survival of mice implanted i.p. with L1210 Leukemia. The class given is in vivo.
A further experiment deals with SP cells. Kind of experiment: Cytotoxicity, ID50 and ID90 by trypan blue exclusion. The note with it: Human MDS, 48 hr. The experiment is classed as cell-based. On the procedure:
as §1, with “antibiotics.” for “antibiotics. PC-3 cells, a human prostate cancer line, was cultured as monolayers in RPMI-1640 with 10% FBS. SP cells were cultured in Minimum Eagle's Medium plus 10% FBS. Human peripheral blood lymphocytes (PBL) were isolated from whole blood of healthy individuals by Ficoll-Hypaque gradient method. Isolated PBL were maintained in RPMI-1640 in the presence of 10% homologous plasma at 37° C. All cells were incubated at 37° C. in 5% C02. Cells in exponential growth were used.”
(§3) Cells in suspension culture were seeded into 96-well microplates (Falcon, Oxnard, Calif.) at 10^5 cell per well, followed, by treatment with 0-10 μg/ml of the candidate compounds for 48 hr at 37° C. with total volume of 250 μl per well. Cell viability was assessed by trypan blue exclusion.
as §2

The test system of experiment [2] is EL4 murine leukemia lymphoma. The description is as above. The experiment is classed as cell-based. The note with it: 48 hr. On the procedure: as §1, with “antibiotics.” for “antibiotics. PC-3 cells, a human prostate cancer line, was cultured as monolayers in RPMI-1640 with 10% FBS. SP cells were cultured in Minimum Eagle's Medium plus 10% FBS. Human peripheral blood lymphocytes (PBL) were isolated from whole blood of healthy individuals by Ficoll-Hypaque gradient method. Isolated PBL were maintained in RPMI-1640 in the presence of 10% homologous plasma at 37° C. All cells were incubated at 37° C. in 5% C02. Cells in exponential growth were used.”
as §3, §2

Values after ≈ are worked out from the molar mass of the structure shown.

Text for L1210 Leukemia: Both control and treated animals were examined for ascitic tumor burden daily for 35 days.

For the compound `NC(=O)NC(=O)c1cccc(NC(=O)CBr)c1` [Compound 8, 3-Bromoacetoamido, benzoylurea], the “Block of Mitosis” value in experiment [1] is recorded as “+”. Besides, the ID90 in the experiment on PC-3 cells is 0.95 ± 0.17 µg/mL (≈ 3.17 µM); in the experiment on B16 mouse melanoma, 0.76 ± 0.09 µg/mL (≈ 2.53 µM); in the experiment on SP cells, 0.71 ± 0.11 µg/mL (≈ 2.37 µM); in experiment [2], 0.02 ± 0.004 µg/mL (≈ 0.0666 µM). In addition, in the experiment with L1210 Leukemia (20 mg/kg ip on days 2 & 8), the “Survival IL %” value was determined as 44%. In addition, in the experiment on L1210 Leukemia (20 mg/kg ip on days 2 & 8, control 16.5 ± 1.4), the “Survival Mean ± SD” value is given as 23.7 ± 4.4.

Values taken from patent US6590123B2, “Aminobenzoic acid derivatives having anti-tumorigenic activity, methods of making and using the same” (Mount Sinai School of Medicine of New York University, priority 1998, dated 2003).
